The values that follow come from patent US9598448B2, “Osmium (II) arene imino anti-cancer complexes” (University of Warwick, priority 2010, dated 2017).

In general, IC50 refers to the concentration that inhibits the measured activity by half.

The subject of data set [1] is human A549 lung cancer cells. As to conditions: cited from earlier work.
Data set [2] relates to A2780/cis ovarian (cisplatin-resistant). Nature of the data set: MTT growth inhibition assay, A2780/cis. The data set is classed as cell-based, human. As to conditions: 96 h. As to the method:
(§1) Tumor cell growth inhibition was assessed using the MTT assay.^13 2×10^3 cells were inoculated into a 96-well plate and incubated overnight at 37° C. in a humidified atmosphere containing 5% CO2. Complexes were solubilised in DMSO as above, and then diluted in complete cell culture medium to give a broad range of concentrations. Cisplatin was included in the screen as a comparator. Medium was removed from each well and replaced with complex or control solutions, and the plates then incubated for a further 96 hours. After 96 h culture medium was removed and 200 μL of 0.5 mg mL^−1 MTT solution (Sigma) in complete medium added to each well. Following further 4 h incubation, the solution was removed from each well and 150 μL of DMSO (Sigma) added to solubilise the formazan crystals resulting from MTT conversion. Absorbance values for the resulting solutions were read at 550 nm on a microplate reader and cell survival calculated as the absorbance of treated cells divided by the control. Results were expressed in terms of IC50 values (i.e. concentration of compound required to kill 50% of cells) and all experiments were performed in triplicate.
(§2) The following human cancer cell lines were cultured in RPMI 1640 cell culture medium supplemented with 1 mM sodium pyruvate, 2 mM L-glutamine and 10% fetal bovine serum (all from Sigma): A549 non-small cell lung, HCT-116 colon, MCF-7 breast, PC-3 prostate (all from LGC Promochem, Teddington, UK), A2780/cis ovarian (cisplatin-resistant) and RT-112 bladder (both from ECACC, Salisbury, UK).
Background: Tetrazolium assays rely on reduction of a dye to a coloured formazan, in cell work by metabolically active cells.

Data set [3] deals with human ovarian A2780 cancer cells. The data set is described as follows: SRB growth inhibition assay, A2780. Type of data set: cell-based. The note with it: SRB; 24 h exposure, 72 h recovery; read-out: IC50 values for azopyridine complexes against A2780 ovarian cancer cells. As to the method:
The concentrations of the osmium complexes that inhibit 50% of the proliferation of human ovarian A2780 cancer cells were determined by sulforhodamine B test. A2780 cells were seeded in 96-well plate (Falcon) at 5000 cells/well, after the incubation for 48 h, The complexes were solubilised in DMSO (Sigma) to provide 10 mM stocks. The stocks were serially diluted by cell culture media to give concentrations four-fold than the final concentrations for the assay. The dilutions of complexes in cell culture media were added to the 96-well plate with cells in triplicates to achieve the final concentrations. The final DMSO concentration in each well was no more than 1% (v/v). The complexes were removed after 24 h. The cells were washed with Phosphate Buffered Saline once and cell culture media was added 150 μL/well. The cells were recovered for 72 h. The surviving cells were fixed by adding 150 μL/well of 50% (w/v) trichloroacetic acid and incubated for 1 h at 277 K (277 K). The plates were washed with tap water three times and dried under a flow of warm air, 0.4% sulforhodamine B (Sigma) solution 100 μL/well followed by washing with 1% acetic acid five times and dried under a flow of warm air. The dye was dissolved in 10 mM Tris buffer […] The absorbance of each well was obtained by the Multiskan Ascent plate reader (Labsystems) at 540 nm. The absorbance value of SRB in each well is directly proportional to the cell number. Then the absorbance can be plotted against concentration and the IC50 determined by using Origin software.
The cytotoxicity studies were carried out as described previously above.

The subject of data set [4] is PC-3 prostate. Nature of the data set: MTT growth inhibition assay, PC-3. Type of data set: cell-based, human. As to conditions: 96 h. As to the method:
as §1, §2

In data set [5] the test system is RT-112 bladder. Nature of the data set: MTT growth inhibition assay, RT-112. As to conditions: MTT, 96 h. The data set is classed as cell-based, human. As to the method: as §1, §2
The subject of data set [6] is A549 non-small cell lung. The data set is described as follows: MTT growth inhibition assay, A549. Type of data set: cell-based, human. The note with it: 96 h. As to the method: as §1, §2
The subject of data set [7] is MCF-7 breast. The data set is described as follows: MTT growth inhibition assay, MCF-7. Type of data set: cell-based, human. As to conditions: 96 h. As to the method: as §1, §2
For data set [8], the system named is HCT-116 colon. Nature of the data set: MTT growth inhibition assay, HCT-116. The data set is classed as cell-based, human. The note with it: 96 h. As to the method:
as §1, §2

Data set [9] in a line: Stability and hydrolysis (1H NMR, MS, UV-vis). The data set is classed as physicochemical. The note with it: 310 K, 24 h, 95% deuterated phosphate buffer (10 mM)/5% MeOD-d4.
In data set [10] the test system is A2780 cells. Nature of the data set: N-acetyl-L-cysteine (NAC) treatment, cell viability by SRB. The data set is classed as cell-based, human. The note with it: pretreated with 5 mM NAC for 2 h; 1.2-1.8× IC50 (2.5× for cisplatin). As to the method: Then NAC and osmium complexes were removed at the same time and washed with PBS once, the cells were incubate for 72 h for recovery. The cell viability was tested by SRB test same as used for IC50 test.

In the case of “[(η^6-p-cym)Os(Azpy-NMe2)Cl]PF6 [Complex 12]”, the “cytotoxicity against the A549 cancer cell line” value in [1] is recorded as “did not show significant cytotoxicity”. The “activity towards human A549 lung cancer cells” value in data set [1] (up to concentrations of 100 μM) was “No activity”. The IC50 turned out to be 1800 nM in [2]; 1800 nM in data set [3]; 6800 nM in data set [4]; 2200 nM in data set [5]; 5200 nM in data set [6]; 1100 nM in data set [7]. In addition, the IC50 in data set [8] turned out to be 900 nM. In [9], the “stability and hydrolysis in aqueous solution” value was “remained stable and did not hydrolyze”. The “cell growth restored after NAC pretreatment” value in [10] is recorded as “only a small effect on restoring growth”.
